{"source": "patent US20140275183A1", "about": "“AGENT FOR REDUCING SIDE EFFECTS OF KINASE INHIBITOR” (Ajinomoto Co., Inc., priority 2011, published 2014)", "key": {"[1]": {"system": "CDAA diet-induced liver cancer model rats", "test": "CDAA (choline-deficient L-amino acid defined) diet-induced liver cancer model rats, combined intake of sorafenib and BCAA", "assay_type": "in vivo, Fischer 344 rats", "excerpt": "Using CDAA (choline-deficient L-amino acid defined) diet-induced liver cancer model rats, the effects of the combined intake of sorafenib and branched-chain amino acids (BCAA) were investigated. The CDAA diet used a commercially available choline-deficient diet (#518753: Choline deficient and iron supplemented L-amino acid defined rat diet, manufactured by Dyets Inc.).\nSix-week old Fischer 344 rats were divided into a CDAA diet intake group, a sorafenib only intake group, and a BCAA combined intake group (N=15 for each group), and the test diet was provided freely. For the CDAA diet intake group, only the CDAA diet was supplied as the test diet. For the sorafenib only intake group, a CDAA diet mixed with an amount of sorafenib tosylate tablets (Nexavar (a registered trademark) tablets 200 mg, manufactured by Bayer Pharma AG) sufficient to provide an intake of sorafenib of 16 mg/kg/day (800 mg/50 kg/day) (hereafter referred to as the “CDAA/sorafenib diet”) was supplied. For the BCAA combined intake group, a diet prepared by mixing the CDAA/sorafenib diet supplied to the sorafenib only intake group with 2.5% by mass of a BCAA formulation (Livact (a registered trademark) granules, manufactured by Ajinomoto Co., Inc.) (hereafter referred to as the “CDAA/sorafenib/BCAA diet”) was supplied. The weight ratio between isoleucine, leucine and valine in the BCAA formulation was 1:2:1.2 (isoleucine:0.952 g, leucine: 1.904 g, and valine: 1.144 g).\nEach individual was autopsied either at the time of death or after 56 weeks from the start of the test (from supply of the test diet), and the effect of treatment continuation was investigated on the basis of the hepatic fibrosis inhibitory effect, the hepatocarcinogenesis rate and the survival rate.\nFurther, the presence or absence of hepatic fibrosis was determined on the basis of the result of Azan staining of a liver tissue section, and the result of measuring the concentration of HYP (hydroxyproline) within the liver. The presence or absence of hepatocarcinogenesis was evaluated by immunostaining a tissue section of the liver with an antibody to the precancerous marker GST-P (glutathione S-transferase placental form), and inspecting the tissue section for the presence of staining."}, "[2]": {"system": "Huh7 cells", "test": "antitumor action enhancement effect, Huh7 cells implanted subcutaneously in nude mice", "assay_type": "in vivo, BALB/c nude mice", "settings": "sorafenib oral 5 mg/kg for 2 weeks then 30 mg/kg for 5 days, ± feed containing 3% BCAA; three weeks after start; FIG. 3", "protocol": "Huh7 cells were implanted subcutaneously in BALB/c nude mice in an amount of 1×10^7 cell/mouse.\nAfter one week, the mice were split into groups based on tumor diameter, and the groups were subjected to 2 weeks of 5 mg/kg sorafenib oral administration±food supply containing 3% BCAA (with the sorafenib administered 5 days/week).\nIn the third week of administration, the sorafenib dose was increased from 5 mg/kg to 30 mg/kg, and oral administration was continued for 5 days. During this time, supply of the feed containing 3% BCAA was continued.\nThree weeks after the start of administration, the tumor diameter of each group was measured, and the average value+SE for the tumor volume was calculated. The tumor volume was calculated as tumor major axis/2×(minor axis)^2."}, "[3]": {"settings": "sorafenib 16 mg/kg/day in CDAA diet, with or without 2.5% BCAA formulation"}}}
{"smiles": "CNC(=O)c1cc(Oc2ccc(NC(=O)Nc3ccc(Cl)c(C(F)(F)F)c3)cc2)ccn1", "note": "[sorafenib, 4-[4-[[4-chloro-3-(trifluoromethyl)phenyl]carbamoylamino]phenoxy]-N-methylpyridine-2-carboxamide]", "values": [{"measurement": "number of rats in which hepatic fibrosis or precancerous lesions were observed, compared with the CDAA diet intake group", "setting": "[1]; Azan staining, liver HYP, GST-P immunostaining, autopsy at death or after 56 weeks", "value": "fewer"}, {"measurement": "bleeding (side effect)", "setting": "[1]; [3]", "value": "a tendency for bleeding to occur in the gastrointestinal tract, including the anal region, was also observed"}, {"measurement": "loss of appetite (side effect)", "setting": "[1]; [3]", "value": "a loss of appetite due to gastrostenosis was also noted"}, {"measurement": "redness (cutaneous side effect)", "setting": "[1]; [3]", "value": "redness was noted not only on the four legs, but also on the trunk and the skin"}, {"measurement": "degree of shrinkage in the tumor volume compared with the control group", "setting": "[2]", "value": "unchanged"}]}
